The values below come from patent US20100105772A1, “USE OF NOVEL LIPID MEDIATORS TO INHIBIT ANGIOGENESIS” (priority 2008, published 2010).

In experiment [1] the test system is neutrophils. Put plainly: Neutrophil infiltration in suture-induced inflamed corneas (NIMP-R14 staining of cross-sections). In kind it is in vivo, mice. Particulars: for neutrophils per section: n=3, mean±SEM. The method, then: ATLa or vehicle was subconjunctivally injected at 0 h and 48 h after suture placement. For each compound treatment, eyes were enucleated from a group of mice at 24 h, and another group at 72 h after suture placement (3 eyes per group). Cross-sections were stained with anti-neutrophil (NIMP-R14) or anti-macrophage (F4/80) Ab, and 12 sections were used to enumerate the respective leukocyte populations. Results represent the mean (±SEM) of 3 eyes per group (*P<0.05, **P<0.001 vs vehicle-treated group, t-test), and data are representative of two independent experiments.
The standard model for induction of inflammatory corneal NV is associated with development of intrastromal vessels in close association with a mixed-cell (primarily neutrophilic) infiltrate.^14,15 Three interrupted sutures (11-0 nylon, Sharpoint; Vanguard, Houston, Tex.) were placed intrastromally with two stromal incursions extending over 120° of the corneal circumference each to induce inflammatory corneal NV, which is also associated with significant LA, as described previously.^14 The corneas were followed by slit-lamp biomicroscopy for corneal NV development. NV was graded between 0 and 3, with increments of 0.5, using a grid system per each corneal quadrant based on the centripetal extent of the neovascular branches from the limbus. Scores for each quadrant then summed to derive the NV index (range 0 to 12) for each eye, as previously described.^14
BALB/c mice were randomized to receive ATLa, or vehicle (normal saline) by subconjunctival injection in a masked fashion after suture or hydron pellet placement. […] ATLa was synthesized as described previously.^20 The physical properties were monitored routinely via LC/MS/MS matching the reported biological and physical properties prior to analysis in present experiments.
Full thickness corneal tissue or 8 μm-frozen sections were fixed in acetone for 15 minutes at room temperature. […] Finally, the samples were covered with mounting medium (Vector Laboratories, Burlingame, Calif.) and analyzed by epifluorescence microscopy (Eclipse E800; Nikon, Tokyo, Japan). […]

Experiment [2] relates to VEGF-C mRNA. Kind of experiment: Real-time PCR of VEGF-C mRNA in suture-induced inflamed corneas. The note with it: 24 h and 72 h after suture placement; vs vehicle-treated group. In kind it is in vivo, mice. The method, then: FIG. 4. The Impact of Lipoxin on the mRNA Expression of VEGFs and VEGFRs in Inflamed Corneas. ATLa or vehicle was subconjunctivally injected at 0 h and 48 h after suture placement. For each compound treatment, corneas were harvested from a group of mice at 24 h, and another group at 72 h after suture placement, as well as from normal untreated control corneas (6 corneas per group). (A) VEGF ligand species (VEGF-A, VEGF-C, VEGF-D) and (B) VEGFRs (VEGFR2 and VEGFR3) were tested by real-time PCR and normalized to GAPDH mRNA. Values are expressed as fold change over the normal control cornea. Results represent the mean (±SEM) of three samples per group (each sample consisted of 2 pooled corneas), and the data are representative of two independent experiments (*P<0.05, **P<0.001, ***P<0.0005, vs vehicle-treated group, t-test). […]
BALB/c mice were randomized to receive ATLa, or vehicle (normal saline) by subconjunctival injection in a masked fashion after suture or hydron pellet placement. […] ATLa was synthesized as described previously.^20 The physical properties were monitored routinely via LC/MS/MS matching the reported biological and physical properties prior to analysis in present experiments. […]

With `COC(=O)CCC[C@H](O)[C@H](O)/C=C/C=C/C=C\C=C\[C@H](O)COc1ccc(F)cc1` [ATLa, 15-epi-16-(para-fluoro)-phenoxy-lipoxin A4 methyl ester], the “inhibition of neutrophils recruitment into the inflamed corneas” value in experiment [1] (24 and 72 h after suture placement, 100 ng/10 μl subconjunctival at 0 h and 48 h, vs vehicle) is approximately 30%. Moreover, the figures for the neutrophils per section in experiment [1] (24 h after suture placement) and in experiment [1] (72 h after suture placement) were 53±1 cells/section and 34±5 cells/section, respectively. The “VEGF-C mRNA expression” value in experiment [2] is “lower”.
